Earlier results on eleven molecules are cited in patent US20030203043A1 (priority 2002, published 2003).

Like-named read-outs stand apart in the source and are kept apart here.

For series [1] the following is noted: supplementation.
For series [2] the following is noted: female rats.
Series [3] deals with T1, aromatase (Homo sapiens, UniProt P11511).
T1 sequence (P11511 1-503): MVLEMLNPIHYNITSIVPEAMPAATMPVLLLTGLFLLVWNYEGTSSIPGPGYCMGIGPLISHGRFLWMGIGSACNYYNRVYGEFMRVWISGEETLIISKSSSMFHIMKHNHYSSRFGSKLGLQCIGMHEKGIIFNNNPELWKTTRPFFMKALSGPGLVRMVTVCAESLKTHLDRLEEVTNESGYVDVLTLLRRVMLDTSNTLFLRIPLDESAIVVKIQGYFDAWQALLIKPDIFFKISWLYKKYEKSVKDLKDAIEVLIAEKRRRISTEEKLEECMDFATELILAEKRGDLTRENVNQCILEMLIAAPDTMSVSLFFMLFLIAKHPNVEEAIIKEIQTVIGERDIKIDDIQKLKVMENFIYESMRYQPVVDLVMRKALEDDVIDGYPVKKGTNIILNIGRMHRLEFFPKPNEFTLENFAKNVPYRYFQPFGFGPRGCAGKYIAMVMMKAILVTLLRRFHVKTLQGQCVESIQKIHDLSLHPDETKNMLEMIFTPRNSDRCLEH
The conditions noted are these: relative to chrysin, AG, ANG.

Test in series [4]: not given
The source holds these as a separate data set.

For series [5] the following is noted: levator ani muscles.
For series [6] the following is noted: hypogonadal men; for waking erection: Asian group; for sexual interest and activity, spontaneous erection: Caucasian group.
The conditions of series [7]: prostate and seminal vesicle weights.
For series [8] the following is noted: 300 mg/wk, six weeks; TE shoulders; ND shoulders and chest.
For series [9] the following is noted: pharmacological doses.
For series [10] the following is noted: compared with placebo.
For series [11] the following is noted: in vivo.
For series [12] the following is noted: in vivo. This is another data set of the same source.

As to `C[C@]12CC[C@H]3[C@@H](CCC4=C[C@@H](O)CC[C@@]43C)[C@@H]1CC[C@@H]2O` [4-androstenediol], the “urine testosterone concentration relative to 4-androstenedione” value (supplementation) is on record as 10 fold.

Consider `C[C@]12CCC(=O)C=C1CC[C@@H]1[C@@H]2CC[C@]2(C)C(=O)CC[C@@H]12` [4-androstenedione], for which the serum testosterone entry in series [1] is reported as “elevations in serum testosterone”.

In the case of `C[C@]12CC[C@H]3[C@@H](CC=C4C[C@@H](O)CC[C@@]43C)[C@@H]1CC[C@@H]2O` [5-androstenediol], in series [2], the “lipid deposition or heat production” value is “did not have a significant effect” and the “proportion of protein in the body composition” value was “increased the proportion of protein”.

With `C[C@]12CC[C@H]3[C@@H](CCC4=CC(=O)CC[C@@H]43)[C@@H]1CCC2=O` [19-nor-androstenedione], for the setting “in vivo”, the excretion products entry is “excreted mainly as nor-androsterone and nor-etiocholanolone”.

Take `COc1ccc(-c2coc3cc(O)cc(O)c3c2=O)cc1` [Biochanin A, 5,7-dihydroxy-4′-methoxyisoflavone]: the aromatase inhibition entry in [3] was “inhibited aromatase, but to a lesser degree”.

For the molecule `C[C@]12CC[C@H](O)CC1=CC[C@@H]1[C@@H]2CC[C@]2(C)C(=O)CC[C@@H]12` [DHEA, dehydro-epiandrosterone], the plasma testosterone result in [4] (50 mg dose) is “levels similar to those observed in young women”. In addition, in series [4] (50 mg or 200 mg DHEA), the “delta 5-androstenediol plasma level” value is “small increase”; the “increase of plasma delta 4-androstenedione” value was “significant and dose dependent”; the “plasma estrogens, particularly estradiol” value was “significant and dose dependent increase”. Besides, in series [4] (200 mg dose), the plasma testosterone entry is given as “slightly below the levels observed in normal men”. For the same molecule, the “increase of plasma dihydrotestosterone levels” value in series [4] (both doses) is listed as “small”.

Turning to `C[C@@H]1CC2=CC(=O)CC[C@@H]2[C@H]2CC[C@]3(C)[C@@H](O)CC[C@H]3[C@@H]21` [MENT, 7α-methyl-19-nor-testosterone], the “anabolic potency relative to testosterone” value in series [5] was “ten-times”. Moreover, in [6], the waking erection result is on record as “increased waking erection”; the “sexual interest and activity, spontaneous erection” value is recorded as “significant increases”. The “androgenic potency relative to testosterone” value in [7] is “four- to five-times”.

As to `CCCCCCC(=O)O[C@H]1CC[C@H]2[C@@H]3CCC4=CC(=O)CC[C@]4(C)[C@H]3CC[C@]12C` [TE, testosterone enanthate], the body circumferences result in [8] was “significant increases”. Besides, in series [6], the waking erection result is listed as “increased waking erection”; the “sexual interest and activity, spontaneous erection” value is listed as “significant increases”.

On to `C[C@]12CC[C@H]3[C@@H](CCC4=CC(=O)CC[C@@]43C)[C@@H]1CC[C@@H]2O` [Testosterone], for which, in [2], the “lipid deposition or heat production” value is given as “did not have a significant effect” and the “proportion of protein in the body composition” value is recorded as “increased the proportion of protein”.

As for `CCCCCCCCCC(=O)O[C@H]1CC[C@H]2[C@@H]3CCC4=CC(=O)CC[C@@H]4[C@H]3CC[C@]12C` [nandrolone decanoate], the “total weight, lean body mass, body cell mass, muscle size, and strength” value in [9] was “significant gains”. Further, the body circumferences entry in series [8] is reported as “significant increases”.

`C[C@]12CC[C@H]3[C@@H](CCC4=CC(=O)CC[C@@H]43)[C@@H]1CC[C@@H]2O` [nandrolone, 19-nor-testosterone]: the lean body mass entry in series [10] was “increased significantly”. Also, the effect on sperm result in series [11] is given as “azoospermia”. The “decrease in HDL-cholesterol” value in series [12] is listed as 25-27%. In series [2], the energy expenditure result is on record as “increased energy expenditure”.
